Reference: the supplement of paper PMC10307832

Columns and labels:
Experiment in all cases: relative viability (nuclei count vs DMSO), 5 days (fraction); higher = more cells survive
Everolimus + Bortezomib = compound: CO[C@H]1C[C@@H]2CC[C@@H](C)[C@@](O)(O2)C(=O)C(=O)N2CCCC[C@H]2C(=O)O[C@H]([C@H](C)C[C@@H]2CC[C@@H](OCCO)[C@H](OC)C2)CC(=O)[C@H](C)/C=C(\C)[C@@H](O)[C@@H](OC)C(=O)[C@H](C)C[C@H](C)/C=C/C=C/C=C/1C [Everolimus] + CC(C)C[C@H](NC(=O)[C@H](Cc1ccccc1)NC(=O)c1cnccn1)B(O)O [Bortezomib] (partner 0.002 µM)
Summary of the method: (§1)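 Lung cancer cell lines were seeded in 1536-well plates and dosed by pin tool the next day, with either a single drug or a fixed anchor-drug dose combined with five library-drug doses (not always all listed) spaced in √10 steps. Five days later, one step fixed the cells and stained their nuclei (final 0.05% Triton X-100, 1% formaldehyde, 1 ug/ml Hoechst), and nuclei were counted on 4× images. Relative viability is the nuclei count in treated wells divided by the count in vehicle wells, and each value is the median of duplicate plates.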

Everolimus + Pemetrexed = compound: CO[C@H]1C[C@@H]2CC[C@@H](C)[C@@](O)(O2)C(=O)C(=O)N2CCCC[C@H]2C(=O)O[C@H]([C@H](C)C[C@@H]2CC[C@@H](OCCO)[C@H](OC)C2)CC(=O)[C@H](C)/C=C(\C)[C@@H](O)[C@@H](OC)C(=O)[C@H](C)C[C@H](C)/C=C/C=C/C=C/1C [Everolimus] + Nc1nc2[nH]cc(CCc3ccc(C(=O)N[C@@H](CCC(=O)O)C(=O)O)cc3)c2c(=O)[nH]1 [Pemetrexed] (partner 0.2 µM)
Summary of the method: as §1

Everolimus + Alpelisib = compound: CO[C@H]1C[C@@H]2CC[C@@H](C)[C@@](O)(O2)C(=O)C(=O)N2CCCC[C@H]2C(=O)O[C@H]([C@H](C)C[C@@H]2CC[C@@H](OCCO)[C@H](OC)C2)CC(=O)[C@H](C)/C=C(\C)[C@@H](O)[C@@H](OC)C(=O)[C@H](C)C[C@H](C)/C=C/C=C/C=C/1C [Everolimus] + Cc1nc(NC(=O)N2CCC[C@H]2C(N)=O)sc1-c1ccnc(C(C)(C)C(F)(F)F)c1 [Alpelisib] (partner 2 µM)
Summary of the method: as §1

Everolimus + Olaparib = compound: CO[C@H]1C[C@@H]2CC[C@@H](C)[C@@](O)(O2)C(=O)C(=O)N2CCCC[C@H]2C(=O)O[C@H]([C@H](C)C[C@@H]2CC[C@@H](OCCO)[C@H](OC)C2)CC(=O)[C@H](C)/C=C(\C)[C@@H](O)[C@@H](OC)C(=O)[C@H](C)C[C@H](C)/C=C/C=C/C=C/1C [Everolimus] + O=C(c1cc(Cc2n[nH]c(=O)c3ccccc23)ccc1F)N1CCN(C(=O)C2CC2)CC1 [Olaparib] (partner 8 µM)
Summary of the method: as §1

Row | Cell Line | relative viability (Everolimus + Bortezomib; first compound 0.01 µM) | relative viability (Everolimus + Bortezomib; first compound 0.03162 µM) | relative viability (Everolimus + Bortezomib; first compound 0.1 µM) | relative viability (Everolimus + Bortezomib; first compound 0.3162 µM) | relative viability (Everolimus + Bortezomib; first compound 1 µM) | relative viability (Everolimus + Pemetrexed; first compound 0.01 µM) | relative viability (Everolimus + Pemetrexed; first compound 0.03162 µM) | relative viability (Everolimus + Pemetrexed; first compound 0.1 µM) | relative viability (Everolimus + Pemetrexed; first compound 0.3162 µM) | relative viability (Everolimus + Pemetrexed; first compound 1 µM) | relative viability (Everolimus + Alpelisib; first compound 0.01 µM) | relative viability (Everolimus + Alpelisib; first compound 0.03162 µM) | relative viability (Everolimus + Alpelisib; first compound 0.1 µM) | relative viability (Everolimus + Alpelisib; first compound 0.3162 µM) | relative viability (Everolimus + Alpelisib; first compound 1 µM) | relative viability (Everolimus + Olaparib; first compound 0.01 µM) | relative viability (Everolimus + Olaparib; first compound 0.03162 µM) | relative viability (Everolimus + Olaparib; first compound 0.1 µM) | relative viability (Everolimus + Olaparib; first compound 0.3162 µM) | relative viability (Everolimus + Olaparib; first compound 1 µM)
1 | 201T | 1.01 | 1.01 | 0.956 | 0.927 | 0.953 | 0.365 | 0.383 | 0.32 | 0.307 | 0.317 | 0.919 | 0.893 | 0.859 | 0.847 | 0.893 | 0.716 | 0.802 | 0.724 | 0.786 | 0.783
2 | A549 |  |  |  |  |  |  |  |  |  |  | 0.328 | 0.292 | 0.272 | 0.323 | 0.204 | 0.204 | 0.234 | 0.232 | 0.237 | 0.215
3 | A-427 | 0.783 | 0.891 | 0.778 | 0.742 | 0.768 | 0.757 | 0.856 | 0.799 | 0.788 | 0.891 | 0.795 | 0.709 | 0.754 | 0.675 | 0.787 | 0.576 | 0.723 | 0.635 | 0.656 | 0.691
4 | ABC-1 | 0.272 | 0.3 | 0.304 | 0.285 | 0.293 |  |  |  |  |  | 0.682 | 0.617 | 0.636 | 0.678 | 0.539 | 1.17 |  | 1 |  | 0.749
5 | BEN | 0.326 | 0.367 | 0.299 | 0.333 | 0.328 | 0.552 | 0.458 | 0.501 | 0.521 | 0.618 | 0.545 | 0.399 | 0.319 | 0.436 | 0.344 | 0.671 | 0.472 | 0.505 | 0.512 | 0.59
6 | CAL-12T | 0.662 | 0.732 | 0.557 | 0.597 | 0.713 | 0.572 | 0.58 | 0.664 | 0.653 | 0.627 | 0.378 | 0.464 | 0.266 | 0.351 | 0.46 | 0.527 | 0.486 | 0.483 | 0.473 | 0.379
7 | COR-L23 | 0.788 | 0.963 | 0.635 | 0.683 | 0.864 | 0.196 | 0.194 | 0.189 | 0.193 | 0.186 | 0.492 | 0.476 | 0.482 | 0.505 | 0.567 | 0.321 | 0.346 | 0.334 | 0.282 | 0.352
8 | COR-L 105 | 0.593 | 0.476 | 0.445 | 0.565 | 0.584 | 0.9 | 0.806 | 0.75 | 0.792 | 0.716 | 0.585 | 0.526 | 0.489 | 0.567 | 0.518 | 0.649 | 0.627 | 0.497 | 0.581 | 0.516
9 | Calu-6 | 0.91 | 0.9 | 0.901 | 0.937 | 0.78 |  |  |  |  |  | 0.65 | 0.604 | 0.593 | 0.608 | 0.614 | 0.624 | 0.68 | 0.646 | 0.552 | 0.705
10 | ChaGo-K-1 | 0.992 | 0.909 | 0.993 | 0.955 | 1.01 | 0.247 | 0.265 | 0.26 | 0.244 | 0.249 |  |  |  |  |  | 0.424 | 0.492 | 0.466 | 0.401 | 0.494
11 | EBC-1 | 0.344 | 0.406 | 0.314 | 0.424 | 0.255 |  |  |  |  |  | 0.278 | 0.348 | 0.284 | 0.33 | 0.279 | 0.505 | 0.324 | 0.31 | 0.349 | 0.334
12 | EKVX | 0.636 | 0.721 | 0.631 | 0.558 | 0.6 |  | 0.378 | 0.371 | 0.345 | 0.389 | 0.479 | 0.48 | 0.436 | 0.61 | 0.449 |  | 0.493 | 0.494 | 0.561 | 0.558
13 | EMC-BAC-2 | 0.731 | 0.69 | 0.645 | 0.588 | 0.616 | 0.469 | 0.491 | 0.445 | 0.45 | 0.491 | 0.499 | 0.46 | 0.388 | 0.461 | 0.481 | 0.455 | 0.43 | 0.385 | 0.383 | 0.347
14 | EPLC-272H | 0.573 | 0.589 | 0.517 | 0.638 | 0.558 | 0.343 | 0.317 | 0.397 | 0.313 | 0.315 | 0.797 | 0.577 | 0.592 | 0.586 | 0.638 | 0.552 | 0.484 | 0.428 | 0.429 | 0.483
15 | H3255 | 0.518 | 0.458 | 0.359 | 0.394 | 0.44 | 0.459 | 0.458 | 0.478 | 0.449 | 0.455 | 0.526 | 0.412 | 0.48 | 0.441 | 0.334 | 0.489 | 0.513 | 0.444 | 0.454 | 0.355
16 | HARA | 1.07 | 1.14 | 0.904 | 1.11 | 1.01 | 0.294 | 0.245 | 0.26 | 0.238 | 0.202 | 0.564 | 0.457 | 0.499 | 0.507 | 0.412 | 0.78 | 0.762 | 0.86 | 0.84 | 0.471
